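Each compound was tested at five concentrations against cells in 96-well plates for 48 hours. Here, GI50 denotes the concentration required for 50% inhibition of growth.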 Calls of active or inactive are those of the source. Rule as the data show it: active = GI50 up to about 1.1 µM and inactive = higher.
Key:
Experiment in all cases: NCI-60 cell line screen, 48 h
MDA-N = system: MDA-N
NCI-H522 = system: NCI-H522
T47D = system: T47D
NCI-H23 = system: NCI-H23
HCT-116 = system: HCT-116
CCRF-CEM = system: CCRF-CEM
COLO 205 = system: COLO 205
SNB-19 = system: SNB-19
IGROV-1 = system: IGROV-1
ACHN = system: ACHN
OVCAR-4 = system: OVCAR-4
786-0 = system: 786-0
SN12C = system: SN12C
NCI/ADR-RES = system: NCI/ADR-RES
TK-10 = system: TK-10
KM12 = system: KM12
OVCAR-8 = system: OVCAR-8
UACC-257 = system: UACC-257
OVCAR-3 = system: OVCAR-3

Measured: GI50

CC(=O)N[C@@H](Cc1ccc(O)cn1)C(=O)NCc1ccc(Cl)cc1
inactive: MDA-N > 100 µM | NCI-H522 > 100 µM | T47D 94 µM | NCI-H23 > 100 µM | HCT-116 > 100 µM | CCRF-CEM 31.5 µM | COLO 205 > 100 µM | SNB-19 > 100 µM | IGROV-1 > 100 µM | ACHN > 100 µM | OVCAR-4 > 100 µM | 786-0 > 100 µM | SN12C > 100 µM | NCI/ADR-RES > 100 µM | TK-10 > 100 µM | KM12 > 100 µM | OVCAR-8 > 100 µM | UACC-257 47.5 µM | OVCAR-3 > 100 µM

CC(C)(C)/C(O)=C\c1nc2ccc(C(F)(F)F)cc2[nH]c1=O
inactive: MDA-N > 100 µM | NCI-H522 > 100 µM | T47D > 100 µM | NCI-H23 > 100 µM | HCT-116 > 100 µM | CCRF-CEM > 100 µM | COLO 205 > 100 µM | SNB-19 > 100 µM | IGROV-1 > 100 µM | ACHN > 100 µM | OVCAR-4 > 100 µM | 786-0 > 100 µM | SN12C > 100 µM | NCI/ADR-RES > 100 µM | TK-10 > 100 µM | KM12 > 100 µM | OVCAR-8 > 100 µM | UACC-257 > 100 µM | OVCAR-3 > 100 µM

COC(OC)C1OCC(n2cc(F)c(=O)[nH]c2=O)C1O (stereo not drawn)
inactive: MDA-N > 100 µM | NCI-H522 > 100 µM | T47D > 100 µM | NCI-H23 > 100 µM | HCT-116 > 100 µM | CCRF-CEM > 100 µM | COLO 205 > 100 µM | SNB-19 > 100 µM | IGROV-1 > 100 µM | ACHN > 100 µM | OVCAR-4 > 100 µM | 786-0 > 100 µM | SN12C > 100 µM | NCI/ADR-RES > 100 µM | TK-10 > 100 µM | KM12 > 100 µM | OVCAR-8 > 100 µM | UACC-257 > 100 µM | OVCAR-3 > 100 µM

CNC(=O)c1nc[nH]c1/N=N/N(C)N
inactive: MDA-N > 100 µM | NCI-H522 > 100 µM | T47D > 100 µM | NCI-H23 > 100 µM | HCT-116 > 100 µM | CCRF-CEM > 10 µM | COLO 205 > 100 µM | IGROV-1 > 100 µM | OVCAR-4 > 100 µM | 786-0 > 100 µM | SN12C > 100 µM | NCI/ADR-RES > 100 µM | TK-10 > 100 µM | KM12 40.5 µM | OVCAR-8 > 100 µM | UACC-257 > 100 µM | OVCAR-3 > 100 µM

CN(C)CCNC(=O)Cn1ccc(=O)c2ccc([N+](=O)[O-])cc21
inactive: MDA-N > 100 µM | NCI-H522 > 100 µM | T47D > 100 µM | NCI-H23 > 100 µM | HCT-116 > 100 µM | CCRF-CEM > 100 µM | COLO 205 47.1 µM | SNB-19 > 100 µM | IGROV-1 > 100 µM | ACHN > 100 µM | OVCAR-4 17.5 µM | 786-0 > 100 µM | SN12C > 100 µM | NCI/ADR-RES > 100 µM | TK-10 > 100 µM | KM12 > 100 µM | UACC-257 > 100 µM | OVCAR-3 38.2 µM

N=C(N)NS(=O)(=O)c1ccc(/N=N/c2c(O)c(C(=O)O)cc3ccccc23)cc1
inactive: MDA-N > 100 µM | NCI-H522 > 100 µM | T47D > 100 µM | NCI-H23 > 100 µM | HCT-116 > 100 µM | CCRF-CEM > 100 µM | COLO 205 > 100 µM | IGROV-1 > 100 µM | ACHN > 100 µM | OVCAR-4 > 100 µM | 786-0 > 100 µM | SN12C > 100 µM | NCI/ADR-RES > 100 µM | TK-10 > 100 µM | KM12 > 100 µM | OVCAR-8 > 100 µM | UACC-257 > 100 µM | OVCAR-3 > 100 µM

COc1ccc(C)cc1NC(=S)N/N=C/c1ccc(SC)cc1
inactive: MDA-N 36.3 µM | NCI-H522 82.2 µM | T47D 60.7 µM | NCI-H23 50.2 µM | HCT-116 69.3 µM | CCRF-CEM 54.8 µM | COLO 205 40.1 µM | SNB-19 > 100 µM | IGROV-1 42.8 µM | ACHN > 100 µM | OVCAR-4 57.8 µM | 786-0 83.6 µM | SN12C > 100 µM | NCI/ADR-RES 60.1 µM | KM12 67.5 µM | OVCAR-8 57.1 µM | OVCAR-3 38.9 µM

COc1ccc(N2C(=O)CS(=O)(=O)C2c2cccc(Oc3ccccc3)c2)cc1 (stereo not drawn)
inactive: MDA-N 1.22 µM | NCI-H522 2.62 µM | T47D 7.45 µM | NCI-H23 4.99 µM | HCT-116 2.17 µM | CCRF-CEM 5.25 µM | COLO 205 3.29 µM | SNB-19 5.53 µM | ACHN 4.92 µM | OVCAR-4 5.79 µM | 786-0 4.7 µM | SN12C 4.65 µM | NCI/ADR-RES 2.89 µM | TK-10 2.65 µM | KM12 4.4 µM | OVCAR-8 4.08 µM | UACC-257 2.74 µM | OVCAR-3 4.03 µM

CCCCCCCCCCCCCCCC(=O)OC(COC(C)=O)CO[PH](=O)O (stereo not drawn)
inactive: MDA-N 31.3 µM | NCI-H522 15.1 µM | T47D 53.2 µM | CCRF-CEM 37.2 µM | COLO 205 96.8 µM | SNB-19 36.5 µM | IGROV-1 22.3 µM | ACHN 27.7 µM | OVCAR-4 58.2 µM | 786-0 20.3 µM | SN12C 48.5 µM | NCI/ADR-RES 23.1 µM | TK-10 29 µM | KM12 18.3 µM | OVCAR-8 18.1 µM | UACC-257 34 µM | OVCAR-3 > 100 µM

CSc1nc(SC)c2c(C)cn(Cc3ccccc3)c2n1
inactive: MDA-N 30.3 µM | NCI-H522 98.4 µM | T47D 33.9 µM | NCI-H23 > 100 µM | HCT-116 69.2 µM | CCRF-CEM 51.4 µM | COLO 205 > 100 µM | SNB-19 > 100 µM | IGROV-1 > 100 µM | ACHN > 100 µM | OVCAR-4 > 100 µM | 786-0 > 100 µM | SN12C > 100 µM | NCI/ADR-RES > 100 µM | TK-10 > 100 µM | KM12 > 100 µM | OVCAR-8 > 100 µM | OVCAR-3 > 100 µM

Cc1cccc2c1C(=O)[C@@](C)([C@]1(C)Nc3cccc(C)c3C1=O)N2
inactive: MDA-N 98.4 µM | NCI-H522 > 100 µM | T47D > 100 µM | NCI-H23 > 100 µM | HCT-116 > 100 µM | CCRF-CEM 49.4 µM | COLO 205 > 100 µM | SNB-19 > 100 µM | IGROV-1 > 100 µM | ACHN > 100 µM | OVCAR-4 > 100 µM | 786-0 > 100 µM | SN12C > 100 µM | NCI/ADR-RES > 100 µM | KM12 > 100 µM | OVCAR-8 > 100 µM | UACC-257 > 100 µM | OVCAR-3 > 100 µM

— ChEMBL document CHEMBL1201862, “PubChem BioAssay data set” (2004)
